Tests used:
[1] = molecular target: T1, hKCNK3 (Homo sapiens, UniProt O14649); design: method as in Beltrán et al., 2013; conditions: hKCNK3 in Xenopus oocytes; ref Beltrán et al., 2013; cited from earlier work
T1 construct: expressed in transfected cells; host or cells: Xenopus laevis oocytes injected with cRNA (plasmid pIRES-CD8, gift of Dr. Fabrice Duprat)

[2] = system: background current of mouse trigeminal neurons; test: Whole-cell patch clamp on cultured mouse trigeminal neurons; type: cell-based; conditions: 100 μM
Method: (§1) Trigeminal ganglia neurons were isolated from Swiss CD-1 mice (Charles River Laboratories, Sulzfeld, Germany). All experiments involving animals were carried out in accordance with the European Union Community Council’s guidelines and approved by the competent state office of the Federal Land of Northrhine Westphalia (file number 87-51.04.2010.A180). At postnatal day 2–5, the mice were sacrificed by decapitation. The brain was removed, and both trigeminal ganglia were excised. The ganglia were washed in PBS+/+ (Invitrogen, Karlsruhe, Germany) and collected in Leibovitz Medium (L15, Invitrogen) on ice. The ganglia were transferred to Dulbecco’s modified essential medium (DMEM) containing 0.025% collagenase (type IA, Sigma–Aldrich). The minced ganglia were incubated for 45 min in a humidified atmosphere (37°C, 95% humidity, 6% CO2) before trituration. The cell suspension was centrifuged at 1000 rpm for 4 min at room temperature and the pellet was resuspended in F-12 medium (Invitrogen; 31331-D-MEM/F-12, GlutaMax^TM) supplemented with 10% fetal bovine serum (FBS^TM; Invitrogen), 200 U/mL penicillin and 200 U/mL streptomycin. The cell suspension (50 μL) was then plated on poly L-lysine (0.01%) coated glass coverslips (30 mm, Sarstedt, Nümbrecht, Germany), placed in cell culture dishes (35 mm) and kept in a humidified atmosphere (37°C, 95% humidity, 6% CO2) for 1 h. Subsequently, F-12 medium (2 mL) supplemented with FBS (10%), 200 U/mL penicillin and 200 U/mL streptomycin was added to each dish. The cells were kept in an incubator (37°C, 95% humidity, 6% CO2) until use.
The recordings were performed using the whole-cell configuration of the patch-clamp technique. The cells were maintained in an extracellular recording solution containing 140 mM NaCl, 5 mM KCl, 2 mM MgCl2, 2 mM CaCl2, 10 mM HEPES and 10 mM glucose, pH 7.4. The Ca^2+ and Na^+- free extracellular solution contained: 140 mM NMDG-Cl, 5 mM KCl, 2 mM MgCl2, 5 mM EGTA, 10 mM HEPES, pH 7.4. The patch electrodes were pulled from borosilicate glass (1.2 mm OD × 1.17 mm ID; Harvard apparatus, Edenbridge, Kent, United Kingdom) and fire polished to 2.5–4 MΩ tip resistance using a horizontal pipette puller (Zeitz Instruments, Munich, Germany) to obtain a patch of approximately 1–2 μm diameter. The pipette solution contained 140 mM KCl, 1 mM MgCl2, and 10 mM HEPES, pH 7.4. All recordings were performed at room temperature with an EPC7 amplifier (List-Medical Electronic, Darmstadt, Germany). The capacity and serial resistance were adjusted manually. The substances were applied via a custom-made manifold superfusion device. […] The data were acquired using Pulse software (HEKA, Lambrecht, Germany) and analyzed with PulseFit (HEKA, Lambrecht, Germany). Unless otherwise stated, the data are expressed as the mean ± SEM. […]

[3] = system: mouse trigeminal neurons; test: Calcium imaging on primary cultured mouse trigeminal neurons; type: cell-based
Method: as §1, with “use. The trigeminal ganglion neurons were incubated with the Ca^2+-sensitive reporter dye Fura-2/AM (Invitrogen, final concentration: 3 μM) 30–45 min before starting the experiment. […] The emitted light (510 nm) was detected with a 12-bit 1376 × 1032-pixel charge-coupled device camera (F-View II, Olympus), and Cell® imaging software (Olympus). The changes in intracellular calcium levels were calculated as the intensity ratio of f340/f380 [(E(510) at 340 nm illumination)/(E(510) at 380 nm illumination)]. […]” for “use.”

T1 sequence (O14649 whole entry): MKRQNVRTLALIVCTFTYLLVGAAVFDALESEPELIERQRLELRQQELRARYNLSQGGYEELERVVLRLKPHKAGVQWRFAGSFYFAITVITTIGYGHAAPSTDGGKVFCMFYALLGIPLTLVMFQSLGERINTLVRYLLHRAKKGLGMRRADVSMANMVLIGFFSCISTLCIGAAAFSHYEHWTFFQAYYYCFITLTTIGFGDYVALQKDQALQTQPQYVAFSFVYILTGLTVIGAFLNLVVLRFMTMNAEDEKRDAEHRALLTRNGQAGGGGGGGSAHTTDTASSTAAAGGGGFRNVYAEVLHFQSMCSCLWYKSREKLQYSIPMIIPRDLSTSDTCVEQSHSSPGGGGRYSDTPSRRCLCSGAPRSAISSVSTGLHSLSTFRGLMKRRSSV

SMILES: O=C(/C=C/C=C/c1ccc2c(c1)OCO2)N1CCCCC1 [1a, piperine]
- % of basal activity after saturating concentrations [1]: 46 ± 10%
- membrane potential change in current clamp ([2]; Na+/Ca2+-free conditions): mild depolarization
- current inhibition when applied under acidic pH ([2]; Na+/Ca2+-free solution, with XE-991, acidic pH, p = 0,00012): significantly decreased
- decrease in the background current ([2]; physiological extracellular solution, 13 of 38 neurons, <30 μm diameter): 19.5 ± 1.8%
- trigeminal neurons showing a calcium response ([3]; 100 μM): 68 out of 619
- piperine-responsive neurons still responsive in the presence of TRP antagonists ([3]; 100 μM piperine with capsazepine 5 μM and HC-030031 20 μM, 25 of 37 neurons): 68%
- piperine-responsive neurons also capsaicin-responsive ([3]; 100 μM piperine, 10 μM capsaicin, 35 of 68 neurons): 51%
